From US6083932A, “Pharmaceutical compositions derived from ginseng and methods of treatment using same” (CV Technologies Inc., priority 1998, dated 2000)

Columns and labels:
Assay type in all cases: biochemical
Conditions in all cases: 10^-5 M
noradrenaline uptake = noradrenaline uptake in hypothalamus slices
Description: (§1) We have also investigated the effects of HT1001 on noradrenaline, dopamine and 5-hydroxytryptamine reuptake and monamine oxidase A and B activity in vitro. When compared to amphetamine, HT1001 has little effect on noradrenaline or dopamine uptake. For example, at 10^-4 M (assuming a molecular weight of 900 for HT1001) HT1001 inhibits noradrenaline uptake in hypothalamus slices 3.0% whereas amphetamine at 10^-5 M inhibits uptake by 83%. […] None of these effects are dramatic.

[1] = test system: 5-hydroxytryptamine uptake; test: 5-hydroxytryptamine uptake in striatal slices
Description: as §1

dopamine uptake = dopamine uptake in striatal slices
Description: as §1

## CC(N)Cc1ccccc1 (stereo not drawn) [amphetamine]
Noradrenaline uptake
  inhibition of noradrenaline uptake: 83%
[1]
  inhibition of 5-hydroxytryptamine uptake: 94%
Dopamine uptake
  inhibition of dopamine uptake: 92.4%
